Experimental data: paper PMC10035947, “Development of novel anilinoquinazoline-based carboxylic acids as non-classical carbonic anhydrase IX and XII inhibitors” (Journal of Enzyme Inhibition and Medicinal Chemistry, 2023)
Like-named read-outs stand apart in the source and are kept apart here.

Columns and labels:
hCA II = molecular target: T1, hCA II (Homo sapiens, UniProt P00918); assay: stopped flow CO2 hydrase assay; assay type: biochemical; settings: mean from 3 assays
T1 construct: made in house
Experimental: (§1) Carbonic anhydrase inhibition assay
The carbonic anhydrase catalyzed CO2 hydration actions for the quinazoline-based carboxylic acid derivatives (6a-c, 7a-c and 8a-c) were assayed utilizing an instrument of Applied Photophysics stopped-flow, as described previously. The enzymes are recombinant proteins prepared in our lab. Phenol red (at a concentration of 0.2 mM) has been used as indicator, working at the absorbance maximum of 557 nm, with 20 mM Hepes (pH 7.5) as buffer, and 20 mM Na2SO4 (for maintaining constant the ionic strength), following the initial rates of the CA- […]
(§2) 1.7 to 17 mM for the determination of the kinetic parameters and inhibition constants. For each inhibitor at least six traces of the initial 5-10% of the reaction have been used for determining the initial velocity. The uncatalyzed rates were determined in the same manner and subtracted from the total observed rates. Stock solutions of inhibitor (0.1 mM) were prepared in distilled-deionized water and dilutions up to 0.01 nM were done thereafter with the assay buffer. Inhibitor and enzyme solutions were preincubated together for 15 min at room temperature prior to assay, in order to allow for the formation of the E-I complex. The inhibition constants were obtained by non-linear least-squares methods using PRISM 3 and the Cheng-Prusoff equation, and represent the mean from at least three different determinations.

hCA XII [1] = molecular target: T2, hCA XII (Homo sapiens, UniProt O43570); assay: stopped flow CO2 hydrase assay; assay type: biochemical; settings: for Selectivity ratio I/XII: KI hCA I / KI hCA XII; for Selectivity ratio II/XII: KI hCA II / KI hCA XII; for Ki: mean from 3 assays
T2 construct: made in house
T2 sequence (O43570 25-354): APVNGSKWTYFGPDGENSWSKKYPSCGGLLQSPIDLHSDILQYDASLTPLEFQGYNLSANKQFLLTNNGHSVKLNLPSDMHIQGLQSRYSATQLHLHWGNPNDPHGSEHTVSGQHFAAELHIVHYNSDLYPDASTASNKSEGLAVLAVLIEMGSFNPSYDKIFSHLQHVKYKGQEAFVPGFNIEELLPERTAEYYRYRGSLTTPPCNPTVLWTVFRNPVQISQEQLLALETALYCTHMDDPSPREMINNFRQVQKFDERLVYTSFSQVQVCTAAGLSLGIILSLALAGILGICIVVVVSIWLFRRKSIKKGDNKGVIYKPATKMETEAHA
Experimental: as §1
(§3) The carbonic anhydrase catalyzed CO2 hydration actions for the quinazoline-based […]
(§4) Photophysics stopped-flow, as described previously. The enzymes are recombinant proteins prepared in our lab. Phenol red (at a concentration of 0.2 mM) has been used as indicator, working at the absorbance maximum of 557 nm, with 20 mM Hepes (pH 7.5) as buffer, and 20 mM Na2SO4 (for maintaining constant the ionic strength), following the initial rates of the CA- […]
(§5) 1.7 to 17 mM for the determination of the kinetic parameters and inhibition constants. For each […]
as §2, with “initial” for “1.7 to 17 mM for the determination of the kinetic parameters and inhibition constants. For each inhibitor at least six traces of the initial 5-10% of the reaction have been used for determining the initial”

hCA I = molecular target: T3, hCA I (Homo sapiens, UniProt P00915); assay: stopped flow CO2 hydrase assay; assay type: biochemical; settings: mean from 3 assays
T3 construct: made in house
T3 sequence (P00915 whole entry): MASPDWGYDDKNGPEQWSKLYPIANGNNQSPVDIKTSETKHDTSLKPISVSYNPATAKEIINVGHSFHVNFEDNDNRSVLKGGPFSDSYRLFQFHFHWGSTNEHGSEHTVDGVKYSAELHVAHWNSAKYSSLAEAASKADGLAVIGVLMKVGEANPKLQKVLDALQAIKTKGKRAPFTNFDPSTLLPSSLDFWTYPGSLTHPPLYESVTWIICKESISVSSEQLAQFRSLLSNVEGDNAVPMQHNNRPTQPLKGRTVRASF
Experimental: as §1, §3, §4, §5
as §2, with “initial” for “1.7 to 17 mM for the determination of the kinetic parameters and inhibition constants. For each inhibitor at least six traces of the initial 5-10% of the reaction have been used for determining the initial”

hCA IX [2] = molecular target: T4, hCA IX (Homo sapiens, UniProt Q16790); assay: stopped flow CO2 hydrase assay; assay type: biochemical; settings: for Selectivity ratio II/IX: KI hCA II / KI hCA IX; for Ki: mean from 3 assays
T4 construct: made in house
Experimental: as §1, §3, §4, §5
as §2, with “initial” for “1.7 to 17 mM for the determination of the kinetic parameters and inhibition constants. For each inhibitor at least six traces of the initial 5-10% of the reaction have been used for determining the initial”

hCA IX [3] = molecular target: T4, hCA IX; settings: cited from earlier work
hCA XII [4] = molecular target: T2, hCA XII; settings: cited from earlier work

## Cc1cccc(-c2nc(Nc3cccc(C(=O)O)c3)c3ccccc3n2)c1 [7a, 3-((2-(m-Tolyl)quinazolin-4-yl)amino)benzoic acid]
hCA II
  Ki: 26 µM
hCA XII [1]
  Selectivity ratio I/XII: 20.8
  Selectivity ratio II/XII: 5.42
  Ki: 4.8 µM
hCA I
  Ki: > 100 µM
hCA IX [2]
  Selectivity ratio II/IX: 0.89
  Ki: 29.3 µM

## COc1ccc(-c2nc(Nc3cccc(C(=O)O)c3)c3ccccc3n2)cc1 [7c, 3-((2–(4-Methoxyphenyl)quinazolin-4-yl)amino)benzoic acid]
hCA II
  Ki: 85.8 µM
other
  melting point: 244 to 246 °C
hCA XII [1]
  Selectivity ratio II/XII: 178.75
  Ki: 0.48 µM
hCA I
  Ki: > 100 µM
hCA IX [2]
  Selectivity ratio II/IX: 2.72
  Ki: 31.6 µM

## COc1ccc(-c2nc(Nc3ccc(C(=O)O)cc3)c3ccccc3n2)cc1 [8c, 4-((2–(4-Methoxyphenyl)quinazolin-4-yl)amino)benzoic acid]
hCA II
  Ki: 4.6 µM
other
  melting point: > 300 °C
hCA XII [1]
  Selectivity ratio I/XII: 265.2
  Selectivity ratio II/XII: 18.40
  Ki: 0.25 µM
hCA I
  Ki: 66.3 µM
hCA IX [2]; KI hCA I / KI hCA IX
  Selectivity ratio I/IX: 14.7
hCA IX [2]
  Selectivity ratio II/IX: 1.02
  Ki: 4.5 µM

## O=C(O)c1ccc(N/C=C/C(=O)c2ccc(F)cc2)cc1 [III]
hCA IX [3]
  Ki: 0.92 µM
hCA XII [4]
  Ki: 1.1 µM

## Cc1c(NC(=O)Nc2cccc(C(=O)O)c2)oc2ccccc12 [I]
hCA IX [3]
  Ki: 0.79 µM
hCA XII [4]
  Ki: 2.3 µM
